Earlier results as cited in EP0699249B1, “METHODS FOR TREATING NON-COTTON-CONTAINING FABRICS WITH CELLULASE” (GENENCOR INTERNATIONAL, INC., priority 1994, dated 1995).

Molecular target: CBH I and CBH II from Trichoderma longibrachiatum
Conditions: competitive inhibition of CBH components

Ki: ~1 mM
Structure (SMILES): O=C[C@H](O)[C@@H](O)[C@H](O[C@@H]1O[C@H](CO)[C@@H](O)[C@H](O)[C@H]1O)[C@H](O)CO [cellobiose]
